Columns and labels:
S. aureus MW2 = assay: ATP release assay (luciferase); type: cell-based, Staphylococcus aureus; settings: 32 μg/mL, 30 minutes
Method: 484 min at room temperature in the dark based on a previously established protocol (8). We added 90
485 µl of the dye/bacteria mixture to 10 μl of serially diluted 10× peptide concentration in black, 96-
486 well plates (Cat. no. 3904, Corning, NY, USA) and incubated the plates for 1 hour at room
487 temperature. We measured the fluorescence with excitation and emission wavelengths of 485 nm
488 and 525 nm, respectively in endpoint assay mode using a SpectraMax i3x (Molecular Devices,
489 CA, USA) fluorescence reader.
490 Propidium iodide-based membrane permeability
491 We used a propidium iodide (Thermo Fisher Scientific, MA, USA) fluorescence-based
492 bacterial permeation assay to establish membrane-oriented interactions with the designed peptides
493 based on a previously established protocol (8). We prepared exponential phase S. aureus MW2
494 bacteria and diluted to OD600 = 0.4 in PBS. We added PI dye (final concentration = 2 µM) to the
495 bacteria in 1:10 serial dilutions in black, 96-well plates (Cat. no. 3904, Corning, NY, USA) and
496 incubated the plates for 1 hour at room temperature. We then measured the fluorescence with an
497 excitation wavelength of 584 nm and an emission wavelength of 620 nm in endpoint assay mode
498 using a SpectraMax i3x (Molecular Devices, CA, USA) fluorescence reader.
501 To determine the ATP leakage potential of the peptides, we employed a luciferase-based […]

TNFA, IL6, MCP1 = assay: Cytokine estimation in infected murine skin (prophylactic model); type: in vivo, mice; parameters: TNFA in murine skin / IL6 in murine skin / MCP1 in murine skin: unit not given here; settings: 2% w/w
Method: (§1) 599 In vivo murine skin infection and treatment
(§2) 600 We used a topical skin-abraded murine infection model with minor modifications to test
(§3) 601 the in vivo efficacy of the CIT-8 peptide (25). We performed all mouse studies following the
(§4) 602 protocol approved by the Institutional Animal Care and Use Committee. In brief, we anesthetized
(§5) 603 female C57BL/6 mice (6 weeks) (Jackson Laboratory, Bar Harbor, ME, USA) with ketamine-
(§6) 604 xylazine (90 mg/kg ketamine and 10 mg/kg xylazine) via intraperitoneal injection. We shaved the
(§7) 605 dorsal side of the mice in the middle of the back (area=2 cm2). To disrupt skin integrity, we tape-
(§8) 606 stripped with Tensoplast® seven times in succession, replacing the tape each time, resulting in
(§9) 607 visibly damaged skin. We infected the damaged skin area with 1 × 10^7 CFU of S. aureus MW2
(§10) 608 (exponential phase bacteria in PBS) with an inoculum of 50 µl using a pipette tip. Ten minutes
(§11) 609 (prophylactic model) and 24 h (established model) after bacterial inoculation, we applied 30 mg
(§12) 610 of 1 and 2% (w/w) CIT-8 ointment in a white petroleum jelly base (Cat no. 19-090-843, Fisher
(§13) 611 Scientific, MA, USA) to the skin. We also included animal groups treated with only petroleum
(§14) 612 jelly or with 2% commercial mupirocin ointment as negative and positive controls, respectively.
(§15) 613 For pain management, we used the analgesic buprenorphine SR (0.05 mg/kg).
(§16) 614 After 24 h of treatment, we euthanized the animals, separated the skin from the underlying
(§17) 615 fascia and muscle tissue, and excised about 2 cm2 of skin from the infected area. We ground the
(§18) 616 skin in 1ml of PBS buffer (Gibco, MD, USA). We serially diluted 100 µl of the solution in PBS
(§19) 617 and plated it on Remel™ TSA plates (Fisher, MA, USA) to estimate viable colony counts after 18
(§20) 618 h of incubation at 37 °C. Further, we added 10 µl of EDTA-Free, protease inhibitor cocktail Set III
(§21) 619 (Millipore Sigma, MA, USA) to 500 µl of the ground skin PBS solution for cytokine estimation.
(§22) 620 The Cytokine Core, LLC (Indianapolis, IN, USA) performed the cytokine concentration analysis

[1] = test system: S. aureus MW2 skin infection; assay: Skin-abraded murine infection, prophylactic (acute) model, bacterial load; type: in vivo, mice; settings: for Reduction of S. aureus MW2 burden vs vehicle, prophylactic model: single treatment 10 minutes after inoculation, n = 12; for Reduction of S. aureus MW2 burden, repeat of prophylactic model: n = 8
Method: as §1, §2, §3, §4, §5, §6, §7, §8, §9, §10, §11, §12, §13, §14, §15, §16, §17, §18, §19, §20, §21, §22

Q: For H-GLFKVIKKLLKVI-NH2 [CIT-8], which “ATP leakage, luminescence” value (S. aureus MW2) is on record?
A: The value was “increased luminescence levels”.

Q: And the “IL6 in murine skin” value (TNFA, IL6, MCP1; animal 1)?
A: The value was 3.152.

Q: And the “MCP1 in murine skin” value (TNFA, IL6, MCP1; animal 1)?
A: Its value is 6.488.

Q: And the “TNFA in murine skin” value (TNFA, IL6, MCP1; animal 1)?
A: The value was 126.

Q: And the “IL6 in murine skin” value (TNFA, IL6, MCP1; animal 2)?
A: Its value is 2.798.

Q: What about the “MCP1 in murine skin” value (TNFA, IL6, MCP1; animal 2) of the same substance?
A: The value was 3.271.

Q: What about the “TNFA in murine skin” value (TNFA, IL6, MCP1; animal 2) of the same substance?
A: The value was 153.385.

Q: What about the “IL6 in murine skin” value (TNFA, IL6, MCP1; animal 3) of the same substance?
A: Its value is 1.183.

Q: And the “MCP1 in murine skin” value (TNFA, IL6, MCP1; animal 3)?
A: Its value is 2.973.

Q: And the “TNFA in murine skin” value (TNFA, IL6, MCP1; animal 3)?
A: Its value is 114.591.

Q: What about the “IL6 in murine skin” value (TNFA, IL6, MCP1; animal 4) of the same substance?
A: Its value is 2.409.

Q: And the “MCP1 in murine skin” value (TNFA, IL6, MCP1; animal 4)?
A: Its value is 4.047.

Q: What about the “TNFA in murine skin” value (TNFA, IL6, MCP1; animal 4) of the same substance?
A: Its value is 182.154.

Q: What about the “IL6 in murine skin” value (TNFA, IL6, MCP1; animal 5) of the same substance?
A: Its value is 1.071.

Q: And the “MCP1 in murine skin” value (TNFA, IL6, MCP1; animal 5)?
A: The value was 1.51.

Q: And the “TNFA in murine skin” value (TNFA, IL6, MCP1; animal 5)?
A: The value was 103.

Q: What about the “IL6 in murine skin” value (TNFA, IL6, MCP1; animal 6) of the same substance?
A: Its value is 5.43.

Q: And the “MCP1 in murine skin” value (TNFA, IL6, MCP1; animal 6)?
A: The value was 10.445.

Q: And the “TNFA in murine skin” value (TNFA, IL6, MCP1; animal 6)?
A: Its value is 372.2.

Q: What about the “Reduction of IL6 level in skin” value (TNFA, IL6, MCP1; n = 6) of the same substance?
A: The value was 5 fold.

Q: What about the “Reduction of MCP1 level in skin” value (TNFA, IL6, MCP1; n = 6) of the same substance?
A: The value was 5 fold.

Q: And the “Reduction of TNFA level in skin” value (TNFA, IL6, MCP1; n = 6)?
A: Its value is 2.5 fold.

Q: What about the “Bacterial load from skin specimens, prophylactic model” value (“Bacterial load from skin specimens” below) ([1]; 1% ointment 10 minutes after infection, animal 1) of the same substance?
A: Its value is 11428571.

Q: And the “Bacterial load from skin specimens” value ([1]; 1% ointment 10 minutes after infection, animal 2)?
A: Its value is 16000000.

Q: And the “Bacterial load from skin specimens” value ([1]; 1% ointment 10 minutes after infection, animal 3)?
A: The value was 1555556.

Q: What about the “Bacterial load from skin specimens” value ([1]; 1% ointment 10 minutes after infection, animal 4) of the same substance?
A: Its value is 3636364.

Q: What about the “Bacterial load from skin specimens” value ([1]; 1% ointment 10 minutes after infection, animal 5) of the same substance?
A: The value was 6000000.

Q: What about the “Bacterial load from skin specimens” value ([1]; 1% ointment 10 minutes after infection, animal 6) of the same substance?
A: The value was 3111111.

Q: And the “Bacterial load from skin specimens” value ([1]; 1% ointment 10 minutes after infection, animal 7)?
A: Its value is 2250000.

Q: And the “Bacterial load from skin specimens” value ([1]; 1% ointment 10 minutes after infection, animal 8)?
A: The value was 2200000.

Q: What about the “Bacterial load from skin specimens” value ([1]; 1% ointment 10 minutes after infection, animal 9) of the same substance?
A: The value was 4210526.

Q: What about the “Bacterial load from skin specimens” value ([1]; 1% ointment 10 minutes after infection, animal 10) of the same substance?
A: Its value is 6153846.

Q: What about the “Bacterial load from skin specimens” value ([1]; 1% ointment 10 minutes after infection, animal 11) of the same substance?
A: Its value is 4000000.

Q: And the “Bacterial load from skin specimens” value ([1]; 1% ointment 10 minutes after infection, animal 12)?
A: Its value is 6060606.

Q: And the “Reduction of S. aureus MW2 burden vs vehicle, prophylactic model” value ([1]; 1% w/w ointment)?
A: The value was 1.7 log.

Q: What about the “Reduction of S. aureus MW2 burden, repeat of prophylactic model” value ([1]; 1% w/w) of the same substance?
A: The value was 1.4 log.

Q: And the “Bacterial load from skin specimens” value ([1]; 2% ointment 10 minutes after infection, animal 1)?
A: Its value is 1000000.

Q: What about the “Bacterial load from skin specimens” value ([1]; 2% ointment 10 minutes after infection, animal 2) of the same substance?
A: The value was 1142857.

Q: What about the “Bacterial load from skin specimens” value ([1]; 2% ointment 10 minutes after infection, animal 3) of the same substance?
A: Its value is 2400000.

Q: What about the “Bacterial load from skin specimens” value ([1]; 2% ointment 10 minutes after infection, animal 4) of the same substance?
A: Its value is 444444.

Q: And the “Bacterial load from skin specimens” value ([1]; 2% ointment 10 minutes after infection, animal 5)?
A: The value was 1684211.

Q: And the “Bacterial load from skin specimens” value ([1]; 2% ointment 10 minutes after infection, animal 6)?
A: Its value is 4000000.

Q: And the “Bacterial load from skin specimens” value ([1]; 2% ointment 10 minutes after infection, animal 7)?
A: The value was 666667.

Q: And the “Bacterial load from skin specimens” value ([1]; 2% ointment 10 minutes after infection, animal 8)?
A: Its value is 923077.

Q: What about the “Bacterial load from skin specimens” value ([1]; 2% ointment 10 minutes after infection, animal 9) of the same substance?
A: Its value is 909091.

Q: And the “Bacterial load from skin specimens” value ([1]; 2% ointment 10 minutes after infection, animal 10)?
A: Its value is 4923077.

Q: What about the “Bacterial load from skin specimens” value ([1]; 2% ointment 10 minutes after infection, animal 11) of the same substance?
A: Its value is 3666667.

Q: What about the “Bacterial load from skin specimens” value ([1]; 2% ointment 10 minutes after infection, animal 12) of the same substance?
A: Its value is 1200000.

Q: What about the “Reduction of bacterial burden, mouse model of MRSA skin infection” value ([1]; 2% w/w in petroleum jelly (abstract)) of the same substance?
A: Its value is 2.3 log10.

Q: What about the “Reduction of S. aureus MW2 burden vs vehicle, prophylactic model” value ([1]; 2% w/w ointment) of the same substance?
A: The value was 2.3 log.

Q: What about the “Reduction of S. aureus MW2 burden, repeat of prophylactic model” value ([1]; 2% w/w) of the same substance?
A: Its value is 2.1 log.
